We go through eight compounds from paper PMC12321279, “Novel 4,5‐Dihydrothiazole‐Phenylpiperazine Derivatives: Synthesis, Docking Studies and Pharmacological Evaluation as Serotonergic Agents” (Chemmedchem, 2025).

Read-outs that look alike come from different tables or passages of the source.

Experiment [1] has as its target T1, 5‐HT1A receptor (Rattus norvegicus, UniProt P19327).
T1 construct: 80 μg of hippocampal membrane suspension (the 5‐HT1A assay); from tissue; host or cells: rat (Sprague-Dawley) hippocampus membranes
T1 sequence (P19327 1-422): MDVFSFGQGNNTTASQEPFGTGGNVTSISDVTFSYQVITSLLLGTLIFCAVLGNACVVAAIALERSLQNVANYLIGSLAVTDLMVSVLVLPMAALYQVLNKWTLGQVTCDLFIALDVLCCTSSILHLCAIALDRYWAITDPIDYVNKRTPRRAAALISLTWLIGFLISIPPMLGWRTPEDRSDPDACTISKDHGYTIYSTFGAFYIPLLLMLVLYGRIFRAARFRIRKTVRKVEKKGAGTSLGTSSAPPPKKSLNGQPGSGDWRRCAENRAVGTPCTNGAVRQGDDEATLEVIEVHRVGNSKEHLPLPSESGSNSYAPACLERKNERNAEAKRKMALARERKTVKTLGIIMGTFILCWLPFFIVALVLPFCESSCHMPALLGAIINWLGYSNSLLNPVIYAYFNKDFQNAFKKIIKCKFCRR
Kind of experiment: 5‐HT1A receptor activation in the [35S]GTP‐γ‐S assay (hippocampal membranes). The class given is biochemical. The following applies: [35S]GTPγS; for Emax / Emax (%) ± SEM, 5‐HT1A receptor G‐protein stimulation / pEC50, 5‐HT1A receptor G‐protein stimulation / EC50 (95% CI, μM), 5‐HT1A receptor G‐protein stimulation / EC50: rat hippocampal membranes; for Emax: read-out: Emax (%) ± SEM, 5‐HT1A receptor G‐protein stimulation; for agonist activity for the 5‐HT1A receptor (classification in words): efficacy compared with 8‐OH‐DPAT. On the procedure: Seven compound concentrations equally spaced on a log scale (10–4 M to 10–10 M) were incubated in duplicate with hippocampal membrane preparations (5μg per well) in assay buffer (50 mM Tris‐HCl, pH = 7.4, 1 mM EGTA, 3 mM MgCl2, 100 mM NaCl, and 30 μM GDP) and 0.08 nM [^35S]GTP‐γ‐S (specific activity: 1250 Ci mmole^−1, Revvity). Nonspecific binding was determined with 10μM of unlabeled GTP‐γ‐S. The final DMSO concentration in the assay was 5%. The reaction mixture was incubated for 90 min. at 30 °C on an orbital shaker set at 250 rpm. Next, the reaction mixture was deposited under vacuum with the FilterMate Harvester (Revvity, USA) onto Unifilter GF/C Plates (Revvity, MA, USA) presoaked with wash buffer (50 mM Tris‐HCl, pH = 7.4). The wells were then rapidly washed with 2 mL of wash buffer. Filter plates were dried overnight at room temperature. Once completely dry, 35 μl of MicroScint PS (Revvity, MA, USA) scintillation fluid was added to each well. Radioactivity was counted in a MicroBeta2 LumiJet scintillation counter (Revvity, MA, USA). Data were analyzed with GraphPad Prism 5.0 software (GraphPad Software, San Diego California USA, www.graphpad.com). The curves were fitted with three‐parameter non‐linear regression model.
On the technique in general: GTPγS resists hydrolysis and so accumulates on activated G proteins.

The target in experiment [2] is T1, 5‐HT1A receptor. Kind of experiment: 5‐HT1A competition binding assay ([3H]8‐OH‐DPAT, hippocampal membranes). The following applies: 1 nM [3H]8‐OH‐DPAT. On the procedure:
(§1) Sprague‐Dawley rats were sacrificed by isoflurane overdose. Brains were rapidly removed and placed on ice. Hippocampi (for the 5‐HT1A assay) and frontal cortices (for the 5‐HT2A and 5‐HT2C assays) were dissected on a Petri dish. The tissue from 10 rats was homogenized in 30 vol. homogenization buffer (50 mM Tris–HCl, […], 1 mM EDTA, 1 mM dithiothreitol) with a handheld Teflon‐glass homogenizer. The homogenate was centrifuged at 48,000 × g at 4 °C for 15 min. The pellet was suspended and homogenized in the homogenization buffer and incubated for 10 min. at 36 °C. The centrifugation and suspension steps were repeated twice. The final pellet was homogenized in 5 vol. 50 mM Tris–HCl, pH = 7.4 buffer and stored at −80 °C for no longer than 6 months. […] For the 5‐HT2C assay, compounds were incubated in duplicate with 5 nM [^3H]mesulergine (specific activity: 80.2 Ci mmol^−1, Revvity, MA, USA) for 60 min. at 36 °C in a 50 mM Tris‐HCl (pH 7.4) buffer, supplemented with 5 mM MgCl2, 140 mM NaCl, 1 mM DTT, 1 mM CaCl2, 10 μM pargyline and 160μg of the frontal cortex membrane suspension. Non‐specific binding was determined with 10μM serotonin. The final DMSO concentration in the assay was 5%. After incubation, the reaction mixture was deposited onto Unifilter GF/C plates (Revvity, MA, USA) presoaked in 0.4% PEI (or 0.4% PEI and 0.5% Triton X‐100 for the 5‐HT2C assay) for 1 h with the FilterMate‐96 Harvester (Revvity, MA, USA). Then, each well was washed with 2 mL of 50 mM Tris–HCl (pH 7.4) buffer to separate bound ligands from free and the plates were left to dry overnight. Then, 35μl of Microscint‐20 scintillation fluid (Revvity, MA, USA) was added to each filter well and left to equilibrate for 2h. Filter‐bound radioactivity was counted in a MicroBeta2 LumiJet scintillation counter (Revvity, MA, USA). Binding curves were fitted with one site non‐linear regression. Binding affinity (pKi and Ki) for each compound was calculated from the […] values with the Cheng‐Prusoff equation from two separate experiments.

The next experiment has as its target T2, 5‐HT2C receptor (Rattus norvegicus, UniProt P08909).
T2 construct: 10 μM pargyline and 160μg of the frontal cortex membrane suspension; from tissue; host or cells: rat (Sprague-Dawley) frontal cortex membranes
T2 sequence (P08909 33-460): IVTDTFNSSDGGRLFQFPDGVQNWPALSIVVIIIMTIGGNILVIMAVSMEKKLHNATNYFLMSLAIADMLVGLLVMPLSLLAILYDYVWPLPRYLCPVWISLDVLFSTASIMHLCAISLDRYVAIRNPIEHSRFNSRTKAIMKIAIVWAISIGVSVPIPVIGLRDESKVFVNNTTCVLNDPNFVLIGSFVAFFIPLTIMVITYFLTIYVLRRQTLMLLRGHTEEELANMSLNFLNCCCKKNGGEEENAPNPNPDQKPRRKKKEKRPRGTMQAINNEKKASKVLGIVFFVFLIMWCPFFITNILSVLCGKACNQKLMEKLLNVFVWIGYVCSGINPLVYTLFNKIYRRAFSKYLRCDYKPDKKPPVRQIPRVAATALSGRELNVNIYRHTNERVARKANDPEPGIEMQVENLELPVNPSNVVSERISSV
Kind of experiment: 5‐HT2C competition binding assay ([3H]mesulergine, frontal cortex membranes). The following applies: 5 nM [3H]mesulergine. On the procedure:
as §1

The next experiment addresses 5‐HT2A receptor (Rattus norvegicus, UniProt P14842). The experiment is described as follows: 5‐HT2A competition binding assay ([3H]ketanserin, frontal cortex membranes). Set-up: from tissue; host or cells: rat (Sprague-Dawley) frontal cortex membranes. The following applies: 1 nM [3H]ketanserin.
[3] abbreviates: 95% CI in brackets, read-out: 5‐HT1A Ki (95% CI).
The mark [4] stands for this setting: read-out: 5‐HT1A pKi (converted).
Setting [5] is: 95% CI in brackets, read-out: 5‐HT2C Ki (95% CI).
Where [6] appears, read: 95% CI in brackets, read-out: 5‐HT2A Ki (95% CI).
Setting [7] is: read-out: 5‐HT2C pKi (converted).
[8] abbreviates: 95% CI in brackets, read-out: EC50 (95% CI, μM), 5‐HT1A receptor G‐protein stimulation.

Sequence of 5‐HT2A receptor (P14842 whole entry): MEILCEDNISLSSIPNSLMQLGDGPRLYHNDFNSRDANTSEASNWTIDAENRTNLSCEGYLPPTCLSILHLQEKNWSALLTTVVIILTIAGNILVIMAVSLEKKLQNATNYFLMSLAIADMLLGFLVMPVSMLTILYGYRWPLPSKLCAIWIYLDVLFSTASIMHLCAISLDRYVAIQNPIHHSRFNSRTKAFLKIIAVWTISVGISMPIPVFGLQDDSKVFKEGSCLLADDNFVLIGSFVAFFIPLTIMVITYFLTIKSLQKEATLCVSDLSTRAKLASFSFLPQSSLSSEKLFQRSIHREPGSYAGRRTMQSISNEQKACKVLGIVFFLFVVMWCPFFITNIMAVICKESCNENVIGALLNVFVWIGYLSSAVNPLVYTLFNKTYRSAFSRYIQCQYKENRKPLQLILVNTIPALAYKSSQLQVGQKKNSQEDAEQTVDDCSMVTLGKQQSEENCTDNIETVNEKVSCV

By Emax is commonly meant the greatest response seen or fitted, relative to the assay's reference. As to `CCCN(CCC)C1CCc2cccc(O)c2C1` (stereo not shown) [8‐OH‐DPAT, 8‐hydroxy‐dipropylaminotetraline, reference compound], the Emax on 5‐HT1A receptor [1] is 177 ± 1.2%.

On to `O=C(NCCCN1CCN(c2ccc(C3=NCCS3)cc2)CC1)c1ccccn1` [FG‐3, N‐(3‐(4‐(4‐(4,5‐dihydrothiazol‐2‐yl) phenyl) piperazin‐1‐yl) propyl) picolinamide], for which the Ki at 5‐HT1A receptor [2] (setting [3]) was 4.5 µM; at 5‐HT1A receptor [2] (setting [4]) it was 4.57 µM; on 5‐HT2C receptor (setting [5]) it was 1.46 µM; at 5‐HT2A receptor (setting [6]) it was 6.3 µM. The “Emax (%) ± SEM, 5‐HT1A receptor G‐protein stimulation” value at 5‐HT1A receptor [1] is listed as “No activity”. The “pEC50, 5‐HT1A receptor G‐protein stimulation” value on 5‐HT1A receptor [1] is “No activity”. On 5‐HT1A receptor [1] (95% CI in brackets), the “EC50 (95% CI, μM), 5‐HT1A receptor G‐protein stimulation” value is “No activity”. Moreover, the “agonist activity for the 5‐HT1A receptor (classification in words)” value on 5‐HT1A receptor [1] is listed as “do not express any agonist activity”.

With `O=C1C2C3C=CC(C3)C2C(=O)N1OCCCN1CCN(c2ccc(C3=NCCS3)cc2)CC1` (stereo not shown) [FG‐9, 2‐(3‐(4‐(4‐(4,5‐dihydrothiazol‐2‐yl) phenyl) piperazin‐1‐yl) propoxy)‐3a,4,7,7a‐tetrahydro‐1H‐4,7‐methanoisoindole‐1,3(2H)‐dione], the Ki at 5‐HT1A receptor [2] (setting [4]) was 72.4 µM. Moreover, on 5‐HT2C receptor (setting [5]), the Ki amounted to 2.03 µM. Also, at 5‐HT1A receptor [1], the “Emax (%) ± SEM, 5‐HT1A receptor G‐protein stimulation” value is “No activity”; the “pEC50, 5‐HT1A receptor G‐protein stimulation” value is reported as “No activity”; the “agonist activity for the 5‐HT1A receptor (classification in words)” value is given as “do not express any agonist activity”. The “EC50 (95% CI, μM), 5‐HT1A receptor G‐protein stimulation” value at 5‐HT1A receptor [1] (95% CI in brackets) is reported as “No activity”. Besides, the Ki on 5‐HT2A receptor (setting [6]) was 14.1 µM.

As for `O=C1C2C3C=CC(O3)C2C(=O)N1OCCCN1CCN(c2ccccc2C2=NCCS2)CC1` (stereo not shown) [FG‐10, 2‐(3‐(4‐(2‐(4,5‐dihydrothiazol‐2‐yl) phenyl) piperazin‐1‐yl) propoxy)‐3a,4,7,7a‐tetrahydro‐1H‐4,7‐epoxyisoindole‐1,3(2H)‐dione], the figures for the Ki at 5‐HT1A receptor [2] (setting [3]), at 5‐HT2C receptor (setting [7]) and at 5‐HT2A receptor (setting [6]) were 0.61 µM, 3.24 µM and 3.84 µM, respectively. For the same compound, the EC50 at 5‐HT1A receptor [1] (setting [8]) came to 52 µM. The maximal effect (Emax) on 5‐HT1A receptor [1] amounted to 120 ± 14.9%.

As for `O=C1C2C3C=CC(O3)C2C(=O)N1OCCCN1CCN(c2ccc(C3=NCCS3)cc2)CC1` (stereo not shown) [FG‐12, 2‐(3‐(4‐(4‐(4,5‐dihydrothiazol‐2‐yl) phenyl) piperazin‐1‐yl) propoxy)‐3a,4,7,7a‐tetrahydro‐1H‐4,7‐epoxyisoindole‐1,3(2H)‐dione], the values for the Ki at 5‐HT1A receptor [2] (setting [4]), on 5‐HT2C receptor (setting [5]) and at 5‐HT2A receptor (setting [6]) were 63.1 µM, 0.286 µM and 6.93 µM, respectively. Moreover, the EC50 on 5‐HT1A receptor [1] (setting [8]) amounted to 46.2 µM. Moreover, the Emax at 5‐HT1A receptor [1] came to 135 ± 18.2%.

Regarding `O=C(NCCCN1CCN(c2ccccc2C2=NCCS2)CC1)C1CC2C=CC1C2` (stereo not drawn) [FG‐13, Exo‐N‐(3‐(4‐(2‐(4,5‐dihydrothiazol‐2‐yl)phenyl)piperazin‐1‐yl)propyl) bicyclo [2.2.1] hept‐5‐ene‐2‐carboxamide], the Ki was 0.22 µM on 5‐HT1A receptor [2] (setting [3]), 0.794 µM on 5‐HT2C receptor (setting [7]) and 3.54 µM on 5‐HT2A receptor (setting [6]). Further, the EC50 on 5‐HT1A receptor [1] (setting [8]) is 79.6 µM. Further, on 5‐HT1A receptor [1], the Emax was 132 ± 8.4%.

For `O=C(NCCCN1CCN(c2ccc(C3=NCCS3)cc2)CC1)C1CC2C=CC1C2` (stereo not drawn) [FG‐15, Exo‐N‐(3‐(4‐(4‐(4,5‐dihydrothiazol‐2‐yl)phenyl)piperazin‐1‐yl)propyl) bicyclo [2.2.1] hept‐5‐ene‐2‐carboxamide], the Ki at 5‐HT1A receptor [2] (setting [4]) is 17.8 µM; on 5‐HT2C receptor (setting [5]), 2.36 µM; at 5‐HT2C receptor (setting [7]), 2.4 µM; at 5‐HT2A receptor (read-out: 5‐HT2A pKi (converted)) it was 4.47 µM. Also, the EC50 on 5‐HT1A receptor [1] (setting [8]) was 88.1 µM; at 5‐HT1A receptor [1] (read-out: pEC50, 5‐HT1A receptor G‐protein stimulation (converted)), 89.1 µM. Also, the maximal effect (Emax) on 5‐HT1A receptor [1] is 137 ± 4.7%.

Take `COc1cc(OC)c(C(=O)CCCCN2CCC3(CC2)NC(=O)NC3=O)cc1NS(=O)(=O)c1ccc(C(F)(F)F)cc1` [RS‐102 221, reference compound]: the “5‐HT2C pKi” value on 5‐HT2C receptor worked out at 8.24 ± 0.23. Moreover, the Ki at 5‐HT2C receptor (setting [5]) was found to be 0.0057 µM.
